Assay results reported in ChEMBL document CHEMBL4834472 (J Med Chem, 2021).

Legend:
[1] = target: CDK2/Cyclin A1 (Homo sapiens, UniProt P24941); format: protein-complex assay
Description: Inhibition of CDK2/Cyclin A1 (unknown origin) at 1 uM using histone H1 as substrate preincubated for 20 mins followed by 33P-ATP addition and measured after 2 hrs by filter binding method

[2] = system: MV4-11; test: cells; conditions: Homo sapiens, MV4-11, 72 h
Description: Antiproliferative activity against human MV4-11 cells assessed as cell death measured after 72 hrs by resazurin dye based assay

[3] = target: Receptor-type tyrosine-protein kinase FLT3 (Homo sapiens, UniProt P36888, ITD)
[4] = system: K562; test: cells; conditions: Homo sapiens, K562, 72 h
Description: Antiproliferative activity against human K562 cells assessed as cell death measured after 72 hrs by resazurin dye based assay

Chain of Receptor-type tyrosine-protein kinase FLT3 (P36888 whole entry, looked up, change not shown): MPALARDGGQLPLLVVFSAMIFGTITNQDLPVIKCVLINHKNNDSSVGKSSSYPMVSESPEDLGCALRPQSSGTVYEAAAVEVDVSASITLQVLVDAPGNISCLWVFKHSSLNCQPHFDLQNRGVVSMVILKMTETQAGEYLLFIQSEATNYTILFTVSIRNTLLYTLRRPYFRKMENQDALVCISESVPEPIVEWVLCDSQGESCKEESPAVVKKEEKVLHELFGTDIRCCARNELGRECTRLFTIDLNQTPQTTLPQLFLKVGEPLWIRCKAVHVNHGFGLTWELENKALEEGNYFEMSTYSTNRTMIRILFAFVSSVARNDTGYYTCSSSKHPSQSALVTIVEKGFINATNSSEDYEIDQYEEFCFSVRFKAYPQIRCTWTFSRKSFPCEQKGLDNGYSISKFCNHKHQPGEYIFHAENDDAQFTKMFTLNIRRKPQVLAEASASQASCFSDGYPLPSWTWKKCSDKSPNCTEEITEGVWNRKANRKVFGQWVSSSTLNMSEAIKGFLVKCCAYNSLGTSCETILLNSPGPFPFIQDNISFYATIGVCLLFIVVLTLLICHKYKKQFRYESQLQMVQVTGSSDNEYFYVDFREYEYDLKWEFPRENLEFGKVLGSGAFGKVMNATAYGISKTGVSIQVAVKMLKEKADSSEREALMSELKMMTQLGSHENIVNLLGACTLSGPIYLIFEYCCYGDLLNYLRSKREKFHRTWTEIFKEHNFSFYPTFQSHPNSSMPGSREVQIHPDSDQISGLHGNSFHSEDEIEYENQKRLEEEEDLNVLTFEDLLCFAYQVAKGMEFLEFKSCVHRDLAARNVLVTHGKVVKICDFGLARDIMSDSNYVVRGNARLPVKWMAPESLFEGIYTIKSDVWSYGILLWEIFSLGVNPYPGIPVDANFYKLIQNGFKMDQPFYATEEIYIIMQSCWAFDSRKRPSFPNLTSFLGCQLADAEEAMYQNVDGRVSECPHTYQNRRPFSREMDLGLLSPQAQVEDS

Row | Compound | IC50 [1] | IC50 [2] | IC50 [3] | IC50 [4]
1 | FC(F)(F)c1ccc(-c2cc(-c3c[nH]nc3C(F)(F)F)nc3ccc4[nH]ncc4c23)cc1 | 8240 nM | > 100000 nM | > 20000 nM | > 100000 nM
2 | [O-][S+]1CCc2c(c(-c3c[nH]nc3C(F)(F)F)nc3ccc4[nH]ncc4c23)C1 (configuration not stated) | 40 nM | 24 nM | 17 nM | 8600 nM
3 | FC(F)(F)c1n[nH]cc1-c1nc2ccc3sncc3c2c2c1CCCC2 | 5160 nM | 7350 nM | 8490 nM | 56800 nM
4 | Cc1n[nH]cc1-c1nc2c(F)cc3[nH]ncc3c2c2c1CCCC2 | 17 nM | 113 nM | 7 nM | 3770 nM
5 | FC(F)(F)c1n[nH]cc1-c1nc2ccc3[nH]ncc3c2c2c1CC(N1CCOCC1)CC2 (configuration not stated) | 901 nM | 550 nM | 16 nM | 33000 nM
6 | FC(F)(F)c1n[nH]cc1-c1nc2ccc3[nH]nc(Cl)c3c2c2c1CCCCC2 | 1720 nM | 2010 nM | 34 nM | > 100000 nM
7 | Cc1n[nH]c2ccc3nc(-c4c[nH]nc4C(F)(F)F)c4c(c3c12)CCC(C#N)C4 (configuration not stated) | 333 nM | 12 nM | 15 nM | 9940 nM
8 | CCOC(=O)C1CCc2c(c(-c3c[nH]nc3C(F)(F)F)nc3ccc4[nH]ncc4c23)C1 (configuration not stated) | 111 nM | 37 nM | 118 nM | 6700 nM
9 | Fc1ccc(-c2cc(-c3c[nH]nc3C(F)(F)F)nc3ccc4[nH]ncc4c23)cc1Cl | 1270 nM | 25700 nM | > 20000 nM | 65900 nM
10 | Cc1n[nH]c2ccc3nc(-c4c[nH]nc4C(F)(F)F)c4c(c3c12)CCC(N)C4 (configuration not stated) | 640 nM | 319 nM | 211 nM | 53800 nM
11 | CC(=O)NC1CCc2c(c(-c3c[nH]nc3C(F)(F)F)nc3ccc4[nH]ncc4c23)C1 (configuration not stated) | 320 nM | 920 nM | 20 nM | > 100000 nM
12 | NCC1CCc2c(c(-c3c[nH]nc3C(F)(F)F)nc3c(F)cc4[nH]ncc4c23)C1 (configuration not stated) | 58 nM | 740 nM | 19 nM | 16000 nM
13 | O=C(O)C1CCc2c(c(-c3c[nH]nc3C(F)(F)F)nc3ccc4[nH]ncc4c23)C1 (configuration not stated) | 1440 nM | 20000 nM | 563 nM | > 100000 nM
14 | FC(F)(F)c1n[nH]cc1-c1nc2c(N3CCCCC3)cc3[nH]ncc3c2c2c1CCCC2 | 5740 nM | 2390 nM | 1250 nM | 20300 nM
15 | FC(F)(F)c1n[nH]cc1-c1nc2ccc3[nH]nc(I)c3c2c2c1CCCC2 | 63 nM | 1260 nM | 21 nM | 40100 nM
16 | Cn1cc(-c2nc3ccc4[nH]ncc4c3c3c2CCCC3)c(C2CC2)n1 | 1130 nM | 1300 nM | 3660 nM | 33800 nM
17 | CC(C)c1n[nH]cc1-c1nc2ccc3[nH]ncc3c2c2c1CCCC2 | 88 nM | 610 nM | 212 nM | 11100 nM
18 | FC(F)(F)c1n[nH]cc1-c1nc2ccc3[nH]ncc3c2c2c1CCCCC2 | 31 nM | 76 nM | 3 nM | 25100 nM
19 | FC(F)(F)c1n[nH]cc1-c1nc2ccc3[nH]nc(Br)c3c2c2c1CCCC2 | 325 nM | 544 nM | 3 nM | 28900 nM
20 | FC(F)(F)c1n[nH]cc1-c1nc2ccc3[nH]nc(Cl)c3c2c2c1CCCC2 | 2320 nM | 2490 nM | 41 nM | > 100000 nM
21 | FC(F)(F)c1n[nH]cc1-c1nc2ccc3[nH]ncc3c2c2c1COCC2 | 190 nM | 92 nM | 109 nM | 9250 nM
22 | c1n[nH]cc1-c1nc2ccc3[nH]ncc3c2c2c1CCCC2 | 72 nM | 330 nM | 90 nM | 3930 nM
23 | CCc1cnn2c(NCc3ccc[n+]([O-])c3)cc(N3CCCC[C@H]3CCO)nc12 [DINACICLIB] | – | 7 nM | > 2000 nM | 13 nM
24 | NC1CCc2c(c(-c3c[nH]nc3C(F)(F)F)nc3ccc4[nH]ncc4c23)C1 (configuration not stated) | 5970 nM | 3500 nM | 3140 nM | 66600 nM

Row | Compound | IC50 [1] | IC50 [2] | IC50 [3] | IC50 [4]
25 | Fc1n[nH]c2ccc3nc(-c4c[nH]nc4C(F)(F)F)c4c(c3c12)CCCC4 | 272 nM | 660 nM | 31 nM | 31200 nM
26 | FC(F)(F)c1n[nH]cc1-c1nc2c(C(F)(F)F)cc3[nH]ncc3c2c2c1CCCC2 | 107 nM | 180 nM | 107 nM | 11100 nM
27 | Fc1cc(F)cc(-c2cc(-c3c[nH]nc3C(F)(F)F)nc3ccc4[nH]ncc4c23)c1 | 469 nM | 52500 nM | > 20000 nM | > 100000 nM
28 | Cc1n[nH]c(C)c1-c1nc2ccc3[nH]ncc3c2c2c1CCCC2 | 107 nM | 514 nM | 194 nM | 8730 nM
29 | FC(F)(F)c1n[nH]cc1-c1nc2ccc3[nH]nnc3c2c2c1CCCC2 | 1260 nM | 400 nM | 408 nM | 87800 nM
30 | Cc1noc(C)c1-c1nc2ccc3[nH]ncc3c2c2c1CCCC2 | 555 nM | 880 nM | 2020 nM | 30800 nM
31 | FC(F)(F)c1n[nH]cc1-c1cc(C2CC2)c2c(ccc3[nH]ncc32)n1 | 87 nM | 980 nM | 368 nM | 78900 nM
32 | Cn1ncc2c3c4c(c(-c5c[nH]nc5C(F)(F)F)nc3ccc21)CCCC4 | 3260 nM | 2420 nM | 1690 nM | 44600 nM
33 | Cn1cc(-c2nc3ccc4[nH]ncc4c3c3c2CCCC3)c(C(F)(F)F)n1 | 556 nM | 500 nM | 549 nM | 10400 nM
34 | N#Cc1n[nH]c2ccc3nc(-c4c[nH]nc4C(F)(F)F)c4c(c3c12)CCCC4 | > 20000 nM | > 100000 nM | > 20000 nM | > 100000 nM
35 | FC(F)(F)c1n[nH]cc1-c1nc2c(Br)cc3[nH]ncc3c2c2c1CCCC2 | 10800 nM | 36300 nM | > 20000 nM | > 100000 nM
36 | CC(C)c1nn(C)cc1-c1nc2ccc3[nH]ncc3c2c2c1CCCC2 | 1450 nM | 1400 nM | 3840 nM | 77500 nM
37 | CN1CCN(C2CCc3c(c(-c4c[nH]nc4C(F)(F)F)nc4ccc5[nH]ncc5c34)C2)CC1 (configuration not stated) | 266 nM | 440 nM | 141 nM | 19100 nM
38 | c1[nH]nnc1-c1nc2ccc3[nH]ncc3c2c2c1CCCC2 | 180 nM | 600 nM | 132 nM | 9800 nM
39 | CN1CCN(CC#Cc2n[nH]c3ccc4nc(-c5c[nH]nc5C(F)(F)F)c5c(c4c23)CCCC5)CC1 | 10000 nM | 459 nM | 18 nM | 24800 nM
40 | Nc1ccc(-c2nc3ccc4[nH]ncc4c3c3c2CCCC3)cc1C(F)(F)F | 237 nM | 2940 nM | 3120 nM | 21900 nM
41 | FC(F)(F)c1n[nH]cc1-c1cc(-c2ccncc2)c2c(ccc3[nH]ncc32)n1 | 823 nM | 3620 nM | 2990 nM | 76800 nM
42 | FC(F)(F)c1n[nH]cc1-c1nc2ccc3[nH]ncc3c2c2c1CC(C(F)(F)F)CC2 (configuration not stated) | 139 nM | 14 nM | 126 nM | 8100 nM
43 | Cc1n[nH]cc1-c1nc2ccc3[nH]nc(C)c3c2c2c1CCCC2 | 717 nM | 687 nM | 42 nM | 21100 nM
44 | N#CC1CCc2c(c(-c3c[nH]nc3C(F)(F)F)nc3c(F)cc4[nH]ncc4c23)C1 (configuration not stated) | 111 nM | 123 nM | 86 nM | 8810 nM
45 | CCc1c(C)c(-c2c[nH]nc2C(F)(F)F)nc2ccc3[nH]ncc3c12 | 46 nM | 84 nM | 4 nM | 39100 nM
46 | OC1CCc2c(c(-c3c[nH]nc3C(F)(F)F)nc3ccc4[nH]ncc4c23)C1 (configuration not stated) | 20 nM | 32 nM | 16 nM | 22500 nM
47 | O=S1(=O)CCc2c(c(-c3c[nH]nc3C(F)(F)F)nc3ccc4[nH]ncc4c23)C1 | 231 nM | 765 nM | 799 nM | > 100000 nM
